From patent publication US20200339625A1, “NOVEL RADIOMETAL-BINDING COMPOUNDS FOR DIAGNOSIS OR TREATMENT OF PROSTATE SPECIFIC MEMBRANE ANTIGEN-EXPRESSING CANCER” (PROVINCIAL HEALTH SERVICES AUTHORITY, priority 2017, published 2020)

Tests used:
[1] = test system: mice bearing LNCaP tumor xenografts; experiment: PET/CT imaging of 68Ga-labeled compounds; type: in vivo; details: PET/CT images
Description: 2.17 PET/CT Imaging and Biodistribution
(§1) Imaging and biodistribution experiments were performed using NODSCID 1L2RyKO male mice. Mice were anesthetized by inhalation with 2% isoflurane in oxygen, and implanted subcutaneously with 1×10^7 LNCaP cells behind left shoulder. Mice were imaged or used in biodistribution studies when the tumor grew up to reach 5-8 mm in diameter during 5-6 weeks.
PET imaging experiments were conducted using Siemens Inveon micro PET/CT scanner. Each tumor bearing mouse was injected 6-8 MBq of 68Ga-labeled tracer through the tail vein under anesthesia (2% isoflurane in oxygen). The mice were allowed to recover and roam freely in their cage. After 50 min, the mice were sedated again with 2% isoflurane in oxygen inhalation and positioned in the scanner. A 10-min CT scan was conducted first for localization and attenuation correction after segmentation for reconstructing the PET images. Then, a 10-min static PET imaging was performed to determined uptake in tumor and other organs. The mice were kept warm by a heating pad during acquisition. For imaging studies acquired at 3 h post-injection (p.i.), the mice were placed in the micro PET/CT scanner at 170 min p.i. Then, the CT acquisitions were conducted as described above, a 15-min static PET imaging was performed to determined uptake in tumor and other organs.

[2] = test system: mice bearing PSMA-expressing LNCAP cancer xenografts; experiment: Biodistribution of 68Ga-labeled compounds; type: in vivo
Description: as §1
For biodistribution studies, the mice were injected with the radiotracer as described above. At predetermined time points (1 or 3 h), the mice was anesthetized with 2% isoflurane inhalation, and euthanized by CO2 inhalation. Blood was withdrawn immediately from the heart, and the organs/tissues of interest were collected. The collected organs/tissues were weighed and counted using an automatic gamma counter. The uptake in each organ/tissue was normalized to the injected dose using a standard curve, and expressed as the percentage of the injected dose per gram of tissue (% ID/g).

In the case of `O=C([O-])CN1CCN(CC(=O)[O-])CCN(CC(=O)NCCCC[C@H](NC(=O)CNC(=O)CCc2ccccc2)C(=O)NC[C@H]2CC[C@H](C(=O)N[C@@H](Cc3ccc4ccccc4c3)C(=O)NCCCC[C@H](NC(=O)N[C@@H](CCC(=O)O)C(=O)O)C(=O)O)CC2)CCN(CC(=O)[O-])CC1.[68Ga+3]` [^68Ga-HTK03082], the excretion pathway [1] is reported as “excreted mainly by the renal pathway”, the Adrenal glands uptake ([2]; 1 h post-injection) is reported as 2.19 ± 0.76 % ID/g and the Blood uptake ([2]; 1 h post-injection) is reported as 1.37 ± 0.23 % ID/g. It also gave a Bone uptake ([2]; 1 h post-injection) of 0.15 ± 0.06 % ID/g, a Brain uptake ([2]; 1 h post-injection) of 0.03 ± 0.01 % ID/g and a Fat uptake ([2]; 1 h post-injection) of 0.61 ± 0.09 % ID/g. It also gave a Heart uptake ([2]; 1 h post-injection) of 0.40 ± 0.07 % ID/g, an Intestine uptake ([2]; 1 h post-injection) of 0.33 ± 0.07 % ID/g and a Kidneys uptake ([2]; 1 h post-injection) of 81.6 ± 12.6 % ID/g. It also gave a Lacrimal uptake ([2]; 1 h post-injection) of 0.08 ± 0.03 % ID/g, a Liver uptake ([2]; 1 h post-injection) of 0.39 ± 0.09 % ID/g and a Lungs uptake ([2]; 1 h post-injection) of 1.39 ± 0.27 % ID/g. It also gave a Muscle uptake ([2]; 1 h post-injection) of 0.33 ± 0.15 % ID/g, a Pancreas uptake ([2]; 1 h post-injection) of 0.47 ± 0.26 % ID/g and a Salivary uptake ([2]; 1 h post-injection) of 1.17 ± 0.27 % ID/g. The Seminal uptake ([2]; 1 h post-injection) was 0.81 ± 0.94 % ID/g, the Spleen uptake ([2]; 1 h post-injection) was 1.12 ± 0.19 % ID/g and the Stomach uptake ([2]; 1 h post-injection) was 0.10 ± 0.03 % ID/g. The Tail uptake ([2]; 1 h post-injection) was 0.84 ± 0.14 % ID/g, the Testes uptake ([2]; 1 h post-injection) was 0.42 ± 0.05 % ID/g and the Thyroid uptake ([2]; 1 h post-injection) was 0.58 ± 0.11 % ID/g. The Tumor uptake ([2]; 1 h post-injection) was 13.6 ± 2.16 % ID/g, the “Tumor:Blood ratio” value ([2]; 1 h post-injection) was 10.1 ± 1.91 and the “Tumor:Muscle ratio” value ([2]; 1 h post-injection) was 49.2 ± 24.2. The “Tumor:kidney ratio” value ([2]; 1 h post-injection) was 0.17 ± 0.02, the Urine uptake ([2]; 1 h post-injection) was 349 ± 209 % ID/g and the Adrenal glands uptake ([2]; 3 h post-injection) was 0.38 ± 0.06 % ID/g. For the same compound, the Blood uptake ([2]; 3 h post-injection) was 0.25 ± 0.04 % ID/g, the Bone uptake ([2]; 3 h post-injection) was 0.01 ± 0.01 % ID/g and the Brain uptake ([2]; 3 h post-injection) was 0.01 ± 0.00 % ID/g. The Fat uptake ([2]; 3 h post-injection) was 0.21 ± 0.01 % ID/g, the Heart uptake ([2]; 3 h post-injection) was 0.07 ± 0.02 % ID/g and the Intestine uptake ([2]; 3 h post-injection) was 0.19 ± 0.02 % ID/g. It also gave a Kidneys uptake ([2]; 3 h post-injection) of 22.3 ± 9.97 % ID/g, a Lacrimal uptake ([2]; 3 h post-injection) of 0.01 ± 0.01 % ID/g and a Liver uptake ([2]; 3 h post-injection) of 0.17 ± 0.02 % ID/g. For the same compound, the Lungs uptake ([2]; 3 h post-injection) was 0.28 ± 0.07 % ID/g, the Muscle uptake ([2]; 3 h post-injection) was 0.11 ± 0.11 % ID/g and the Pancreas uptake ([2]; 3 h post-injection) was 0.09 ± 0.03 % ID/g. It also gave a Salivary uptake ([2]; 3 h post-injection) of 0.20 ± 0.07 % ID/g, a Seminal uptake ([2]; 3 h post-injection) of 0.12 ± 0.08 % ID/g and a Spleen uptake ([2]; 3 h post-injection) of 0.24 ± 0.08 % ID/g. The Stomach uptake ([2]; 3 h post-injection) was 0.05 ± 0.01 % ID/g, the Tail uptake ([2]; 3 h post-injection) was 0.24 ± 0.14 % ID/g and the Testes uptake ([2]; 3 h post-injection) was 0.13 ± 0.08 % ID/g. The Thyroid uptake ([2]; 3 h post-injection) was 0.16 ± 0.09 % ID/g, the Tumor uptake ([2]; 3 h post-injection) was 14.5 ± 2.12 % ID/g and the “Tumor:Blood ratio” value ([2]; 3 h post-injection) was 58.1 ± 12.6. The “Tumor:Muscle ratio” value ([2]; 3 h post-injection) was 223 ± 122, the “Tumor:kidney ratio” value ([2]; 3 h post-injection) was 1.12 ± 1.30 and the Urine uptake ([2]; 3 h post-injection) was 191 ± 83.1 % ID/g.

With `CCCCCCC(NC(=O)C1CCC(CNC(=O)CN2CCN(CC(=O)[O-])CCN(CC(=O)[O-])CCN(CC(=O)[O-])CC2)CC1)C(=O)NCCCCC(NC(=O)NC(CCC(=O)O)C(=O)O)C(=O)O.[68Ga+3]` (stereo not drawn) [^68Ga-HTK03026] the excretion pathway [1] was “excreted mainly via the renal pathway”, the “tumor uptake (qualitative comparison)” value ([1]; compounds of FIG. 13) was “comparable” and the Adrenal glands uptake ([2]; 1 h post-injection) was 1.84 ± 0.95 % ID/g. The Blood uptake ([2]; 1 h post-injection) was 0.70 ± 0.19 % ID/g, the Bone uptake ([2]; 1 h post-injection) was 0.54 ± 0.20 % ID/g and the Brain uptake ([2]; 1 h post-injection) was 0.06 ± 0.02 % ID/g. For the same compound, the Fat uptake ([2]; 1 h post-injection) was 0.45 ± 0.11 % ID/g, the Heart uptake ([2]; 1 h post-injection) was 0.30 ± 0.06 % ID/g and the Intestine uptake ([2]; 1 h post-injection) was 0.29 ± 0.06 % ID/g. For the same compound, the Kidneys uptake ([2]; 1 h post-injection) was 68.5 ± 28.2 % ID/g, the Lacrimal uptake ([2]; 1 h post-injection) was 1.33 ± 0.90 % ID/g and the Liver uptake ([2]; 1 h post-injection) was 0.24 ± 0.06 % ID/g. The Lungs uptake ([2]; 1 h post-injection) was 0.82 ± 0.26 % ID/g, the Muscle uptake ([2]; 1 h post-injection) was 0.28 ± 0.13 % ID/g and the Pancreas uptake ([2]; 1 h post-injection) was 0.71 ± 1.04 % ID/g. It also gave a Salivary uptake ([2]; 1 h post-injection) of 0.83 ± 0.22 % ID/g, a Seminal uptake ([2]; 1 h post-injection) of 0.43 ± 0.31 % ID/g and a Spleen uptake ([2]; 1 h post-injection) of 1.34 ± 0.54 % ID/g. It also gave a Stomach uptake ([2]; 1 h post-injection) of 0.10 ± 0.03 % ID/g, a Tail uptake ([2]; 1 h post-injection) of 0.90 ± 0.56 % ID/g and a Testes uptake ([2]; 1 h post-injection) of 0.35 ± 0.22 % ID/g. For the same compound, the Thyroid uptake ([2]; 1 h post-injection) was 0.35 ± 0.08 % ID/g, the Tumor uptake ([2]; 1 h post-injection) was 12.5 ± 2.90 % ID/g and the “Tumor:Blood ratio” value ([2]; 1 h post-injection) was 18.6 ± 5.54. The “Tumor:Muscle ratio” value ([2]; 1 h post-injection) was 52.8 ± 24.9, the “Tumor:kidney ratio” value ([2]; 1 h post-injection) was 0.22 ± 0.15 and the Urine uptake ([2]; 1 h post-injection) was 575 ± 245 % ID/g.
